Experiments:
Format in all cases: cell-based, human
[1] = test system: cells differentiated from iPS cell line MAP2 Neo #2; test: Flow cytometry of cells made with the No FGF8 protocol with drug selection (+G418) (Example 2); conditions: +G418, 7 days post-thaw
Method: (§1) On Day 19, cells were dissociated using Accutase (45 min) and were re-plated at 3.1×10^5 cells/cm^2 onto flasks pre-coated with poly-L-ornithine and laminin (PLO/laminin) in Maturation Medium containing 2.5 μM blebbistatin. Cells were fed with Maturation Medium on Days 20, 22 and 24. To compare unselected cells to those that had undergone drug selection, in some experiments a side-arm condition of cells were fed on Day 22 and 24 with Maturation Medium containing 100 μg/mL G418 to select against cells not expressing the neomycin resistance gene under the control of a pan-neuronal MAP2 promoter.
On Day 26, cells were dissociated using Accutase (45 min) and cryopreserved in CryoStor CS10 medium at 1.25×10^7 cells/mL using a controlled rate freezer.
In further studies the purity of mature midbrain DA neurons was assessed by flow cytometry of cells generated using a “no FGF8” protocol alone compared to cells obtained using a drug selection method. When the cells are cryopreserved on day 26 with no drug selection, they are 99% FoxA2^+, 40% TH^+, and 77% Map2^+. […] For comparison, cells made using the same protocol but with drug selection (+G418), the final purity at 7 days post-thaw was 96% FoxA2^+, 63% TH^+, and 98% Map2^+.

[2] = test system: cells differentiated from iPS cell line MAP2 Neo #2; test: Flow cytometry of midbrain DA neuron differentiation with G418 drug selection (Example 1); conditions: day 38; 100 μg/mL G418 selection; same protocol without drug selection gave 39% neurons
Method: as §1, with “24,” for “19,”, “Day 25. On Day 27” for “Days 20, 22”, “Day 29,” for “24. To compare unselected cells to those that had undergone drug selection, in some experiments a side-arm condition of”, “fed” for “fed on Day 22 and 24”
On Day 31, cells were dissociated using Accutase (45 min) and were re-plated at 3.1×10^5 cells/cm^2 onto PLO/ laminin flasks in Maturation Medium containing 100 μg/mL G418 and 2.5 μM blebbistatin. On Day 32, Day 34 and Day 36, cells were fed with Maturation Medium. On Day 38, cells were dissociated using Accutase (45 min) and cryopreserved in CryoStor CS10 medium at 1.25×10^7 cells/mL using a controlled rate freezer.
The effect of drug selection on gene expression in cell populations was also analyzed. […] This iPS cell lines (MAP2 Neo #2 (01279.107.00402)) was generated using zinc finger nuclease-mediated homologous recombination at the AAVS1 safe harbor site, as detailed above. The midbrain DA neuron differentiation protocol performed without drug selection results in a population of cells that is 39% neurons (Map2^+/Nestin^−) on day 38. […]

MAP2 Neo #2 iPS cells = test: Midbrain specification during DA progenitor induction with a MEK inhibitor; conditions: 1 μM PD0325901 added from Day 2 of differentiation
Method: Day 1 medium was composed of DMEM/F12 with B27 Supplement and containing a cocktail of small molecule inhibitors and activators (“Induction Cocktail”): 200 nM LDN-193189, […] SB431542, 2 μM purmorphamine, 100 ng/mL Shh C25II and 1.25 μM CHIR 99021. […] On Day 3 and Day 4, the cells were fed with DMEM/F12 with B27 (−Vitamin A)+Induction Cocktail+1 μM PD0325901.

Q: For `CN[C@@H]1[C@@H](O)[C@@H](O[C@@H]2[C@@H](O)[C@H](O[C@H]3O[C@H]([C@@H](C)O)[C@@H](O)[C@H](O)[C@H]3N)[C@@H](N)C[C@H]2N)OC[C@]1(C)O` [G418], which “TH+ cells, final purity” value ([1]; without selection 55%) is on record?
A: 63%

Q: And the “Map2+ cells, final purity” value ([1]; without selection 90%)?
A: 98%

Q: What about the “FoxA2+ cells, final purity” value ([1]; without selection 93%) of the same molecule?
A: 96%

Q: And the “neurons (Map2+/Nestin-) in the cell population” value [2]?
A: 95%

Q: Which midbrain specification (MAP2 Neo #2 iPS cells) does the source give for `O=C(NOC[C@H](O)CO)c1ccc(F)c(F)c1Nc1ccc(I)cc1F` [PD0325901] here?
A: induces faster and more efficient midbrain specification

From patent US10828335B2, “Production of midbrain dopaminergic neurons and methods for the use thereof” (FUJIFILM Cellular Dynamics, Inc., priority 2014, dated 2020)
